Test results: patent US20220378923A1, “BET DEGRADER” (KYOWA KIRIN CO., LTD., priority 2019, published 2022)

Tested on: MYC mRNA expression in SU-DHL-4 cells
Experiment: Suppressive effect on MYC mRNA expression (Test Example 2)
Assay type: cell-based, human
Details: test compound 100 nmol/L, 6 hours, qRT-PCR corrected by ACTB, GAPDH; for inhibition at 0.1 µM: Homo sapiens, HPRT1, read-out: Suppression Rate of MYC mRNA Expression (%); for Suppression Rate of MYC mRNA Expression (%): HPRT1
Protocol: The cells were passaged twice a week at a volume of 20-40 mL so as to maintain a cell concentration of 1×10^6 cells/mL or less. The cultured SU-DHL-4 cells were seeded at 6×10^5 cells/well in a transparent 6-well plate (Code No. 140675, Thermo Fisher Scientific). After seeding, the cells were precultured at 37° C. in a carbon dioxide gas incubator for 18 to 25 hours. […] At this time, the final concentration of DMSO was adjusted to be 0.1 vol %. After adding the test compound, the cells were cultured at 37° C. in a carbon dioxide gas incubator for 6 hours. Then, the cells were collected by centrifugation and used for extraction of mRNA. mRNA extraction from cells was performed using Maxwell® 16 LEV simplyRNA Purification Kits (Code No. AS1270, Promega). The mRNA recovery protocol was performed according to the manufacturer's recommended protocol attached to the kit. […] The cDNA conversion was performed, according to the manufacturer's recommended protocol attached to the kit, in 0.020 mL of the reaction solution, and GeneAmp® PCR System 9700 (Applied Biosystems) was used. The cDNA-converted sample was diluted 10-fold by adding 0.180 mL of RNase Free Water (Code No. 10977-023, Thermo Fisher Scientific) and used for quantitative real-time polymerase chain reaction (qRT-PCR). For the calibration curve of qRT-PCR, 0.08 mL of RNase Free Water was added to a cDNA sample using DMSO as a test compound for 5-fold dilution. Further, two 5-fold dilutions were prepared stepwise, and these three samples were used as the calibration curve samples. The following reagents were used for qRT-PCR: TaqMan Gene Expression Assays, Inventoried (Primer probe: Code No. 4331182, Thermo Fisher Scientific, Assay ID: (i) MYC: Hs00153408_m1, (ii) ACTB: Hs01060665_g1, (iii) GAPDH: Hs04420697_g1, (iv) HPRT1: […] Universal PCR Master Mix, no AmpEraseR UNG (Master Mix: Code No. 4367846, Thermo Fisher Scientific). Primer probe (0.001 mL), Master Mix (0.010 mL), water (0.004 mL) and the diluted cDNA sample (0.005 mL) were mixed, and qRT-PCR analysis was performed. For qRT-PCR analysis, QuantStudio 7 Flex (Thermo Fisher Scientific) or 7500 Fast Real-Time PCR (Applied Biosystems) was used to measure in Fast mode and analyze. […] Corrected MYC expression=A/B • A: MYC expression level • B: Geometric mean of expression levels of ACTB, GAPDH and HPRT1 Using the corrected values, the suppression rate of MYC expression for the wells to which the test compound was not added was calculated by the following formula. […] Corrected MYC expression level in a well containing test compound • D: Corrected MYC expression level in a well to which test compound was not added

Row | Compound | inhibition at 0.1 µM [%] | Suppression Rate of MYC mRNA Expression (%)
1 | CCC(=O)N1c2ccccc2[C@H](Nc2ccc(C(=O)NCCCNC(=O)c3ccc(N[C@@H]4C[C@H](C)N(C(=O)CC)c5ccccc54)cc3)cc2)C[C@@H]1C (relative stereo) [Compound 1a, N,N′-(Propane-1,3-diyl)bis(4-{[(2S*,4R*)-2-methyl-1-propionyl-1,2,3,4-tetrahydroquinolin-4-yl]amino}benzamide)] | 96.7 | –
2 | CCC(=O)N1c2ccccc2[C@H](Nc2ccc(C(=O)NC3CCN(C(=O)c4ccc(N[C@@H]5C[C@H](C)N(C(=O)CC)c6ccccc65)cc4)CC3)cc2)C[C@@H]1C (relative stereo) [Compound 1c, 4-{[(2S*,4R*)-2-Methyl-1-propionyl-1,2,3,4-tetrahydroquinolin-4-yl]amino}-N-[1-(4-{[(2S*,4R*)-2-methyl-1-propionyl-1,2,3,4-tetrahydroquinolin-4-yl]amino}benzoyl)piperidin-4-yl]benzamide] | 97.3 | –
3 | CCC(=O)N1c2ccccc2[C@H](Nc2ccc(NC(=O)CCNC(=O)c3ccc(N[C@@H]4C[C@H](C)N(C(=O)CC)c5ccccc54)cc3)cc2)C[C@@H]1C (relative stereo) [Compound 2f, 4-{[(2S,4R)-2-Methyl-1-propionyl-1,2,3,4-tetrahydroquinolin-4-yl]amino}-N-{3-[(4-{[(2S*,4R*)-2-methyl-1-propionyl-1,2,3,4-tetrahydroquinolin-4-yl]amino}phenyl)amino]-3-oxopropyl}benzamide] | 98.6 | –
4 | CCC(=O)N1c2ccccc2[C@H](Nc2ccc(NC(=O)C3CN(C(=O)c4ccc(N[C@@H]5C[C@H](C)N(C(=O)CC)c6ccccc65)cc4)C3)cc2)C[C@@H]1C (relative stereo) [Compound 2h, 1-(4-{[(2S,4R)-2-Methyl-1-propionyl-1,2,3,4-tetrahydroquinolin-4-yl]amino}benzoyl)-N-(4-{[(2S*,4R*)-2-methyl-1-propionyl-1,2,3,4-tetrahydroquinolin-4-yl]amino}phenyl)azetidine-3-carboxamide] | 98.2 | –
5 | CCC(=O)N1c2ccccc2[C@H](Nc2ccc(NC(=O)CCSc3ccc(N[C@@H]4C[C@H](C)N(C(=O)CC)c5ccccc54)cc3)cc2)C[C@@H]1C (relative stereo) [Compound 4e, N-(4-{[(2S*,4R*)-2-Methyl-1-propionyl-1,2,3,4-tetrahydroquinolin-4-yl]amino}phenyl)-3-[(4-{[(2S,4R)-2-methyl-1-propionyl-1,2,3,4-tetrahydroquinolin-4-yl]amino}phenyl)thio]propanamide] | 98.4 | –
6 | CCC(=O)N1c2ccccc2[C@H](Nc2ccc(NC(=O)N3CCN(C(=O)c4ccc(N[C@@H]5C[C@H](C)N(C(=O)CC)c6ccccc65)cc4)CC3)cc2)C[C@@H]1C (relative stereo) [Compound 6m, 4-(4-(((2S,4R)-2-Methyl-1-propionyl-1,2,3,4-tetrahydroquinolin-4-yl)amino)benzoyl)-N-(4-(((2S*,4R*)-2-methyl-1-propionyl-1,2,3,4-tetrahydroquinolin-4-yl)amino)phenyl)piperazine-1-carboxamide] | 97 | –
7 | CCC(=O)N1c2ccccc2[C@H](Nc2ccc(NC(=O)C#CCNC(=O)C3CCC(N[C@@H]4C[C@H](C)N(C(=O)CC)c5ccccc54)CC3)cc2)C[C@@H]1C (relative stereo) [Compound 8g, (1R,4r)-4-(((2S*,4R*)-2-Methyl-1-propionyl-1,2,3,4-tetrahydroquinolin-4-yl)amino)-N-(4-((4-(((2S,4R)-2-methyl-1-propionyl-1,2,3,4-tetrahydroquinolin-4-yl)amino)phenyl)amino)-4-oxobut-2-yn-1-yl)cyclohexane-1-carboxamide] | – | 96.6
8 | CCC(=O)N1c2ccccc2[C@H](N[C@H]2CC[C@H](NC(=O)C#CCNC(=O)[C@H]3CC[C@H](N[C@@H]4C[C@H](C)N(C(=O)CC)c5ccccc54)CC3)CC2)C[C@@H]1C (relative stereo) [Compound 9d, (1R,4R)-4-(((2S*,4R*)-2-Methyl-1-propionyl-1,2,3,4-tetrahydroquinolin-4-yl)amino)-N-(4-(((1R,4R)-4-(((2S,4R)-2-methyl-1-propionyl-1,2,3,4-tetrahydroquinolin-4-yl)amino)cyclohexyl)amino)-4-oxobut-2-yn-1-yl)cyclohexane-1-carboxamide] | – | 98.0
9 | CCC(=O)N1c2ccccc2[C@H](Nc2ccc(-n3cc(CNC(=O)N4CCC(N[C@@H]5C[C@H](C)N(C(=O)CC)c6ccccc65)CC4)nn3)cc2)C[C@@H]1C (relative stereo) [Compound 10b, 4-(((2S*,4R*)-2-Methyl-1-propionyl-1,2,3,4-tetrahydroquinolin-4-yl)amino)-N-((1-(4-(((2S,4R)-2-methyl-1-propionyl-1,2,3,4-tetrahydroquinolin-4-yl)amino)phenyl)-1H-1,2,3-triazol-4-yl)methyl)piperidine-1-carboxamide] | 96.6 | –
10 | CCC(=O)N1c2ccccc2[C@H](NCc2ccc(C(=O)N3CC(C(=O)Nc4ccc(N[C@@H]5C[C@H](C)N(C(=O)CC)c6ccccc65)cc4)C3)cc2)C[C@@H]1C (relative stereo) [Compound 10g, 1-(4-((((2S*,4R*)-2-Methyl-1-propionyl-1,2,3,4-tetrahydroquinolin-4-yl)amino)methyl)benzoyl)-N-(4-(((2S,4R)-2-methyl-1-propionyl-1,2,3,4-tetrahydroquinolin-4-yl)amino)phenyl)azetidine-3-carboxamide] | 97.2 | –
11 | CCC(=O)N1c2ccccc2[C@H](NCCCCC(=O)NCc2cn(-c3ccc(N[C@@H]4C[C@H](C)N(C(=O)CC)c5ccccc54)cc3)nn2)C[C@@H]1C (relative stereo) [Compound 12f, 5-(((2S*,4R*)-2-Methyl-1-propionyl-1,2,3,4-tetrahydroquinolin-4-yl)amino)-N-((1-(4-(((2S,4R)-2-methyl-1-propionyl-1,2,3,4-tetrahydroquinolin-4-yl)amino)phenyl)-1H-1,2,3-triazol-4-yl)methyl)pentane amide] | – | 97.9
12 | CCC(=O)N1c2ccccc2[C@H](NCCCCCCCC(=O)Nc2ccc(N[C@@H]3C[C@H](C)N(C(=O)CC)c4ccccc43)cc2)C[C@@H]1C (relative stereo) [Compound 12h, 8-(((2S*,4R*)-2-Methyl-1-propionyl-1,2,3,4-tetrahydroquinolin-4-yl)amino)-N-(4-(((2S,4R)-2-methyl-1-propionyl-1,2,3,4-tetrahydroquinolin-4-yl)amino)phenyl)octanamide] | 96.5 | –
13 | CCC(=O)N1c2ccccc2[C@H](NCC23CCC(C(=O)N4CC(C(=O)Nc5ccc(N[C@@H]6C[C@H](C)N(C(=O)CC)c7ccccc76)cc5)C4)(CC2)CC3)C[C@@H]1C (relative stereo) [Compound 17o, 1-(4-((((2S,4R)-2-Methyl-1-propionyl-1,2,3,4-tetrahydroquinolin-4-yl)amino)methyl)bicyclo[2.2.2]octane-1-carbonyl)-N-(4-(((2S*,4R*)-2-methyl-1-propionyl-1,2,3,4-tetrahydroquinolin-4-yl)amino)phenyl)azetidine-3-carboxamide] | 97.1 | –
14 | Cc1sc2c(c1C)C(c1ccc(C(=O)NCCCNC(=O)c3ccc(C4=N[C@@H](CC(=O)OC(C)(C)C)c5nnc(C)n5-c5sc(C)c(C)c54)cc3)cc1)=N[C@@H](CC(=O)OC(C)(C)C)c1nnc(C)n1-2 [Compound 1b, Di-tert-butyl 2,2′-[(6S,6′S)-({[propane-1,3-diylbis(azanediyl)]bis(carbonyl)}bis(4,1-phenylene))bis(2,3,9-trimethyl-6H-thieno[3,2-f][1,2,4]triazolo[4,3-a][1,4]diazepine-4,6-diyl)]diacetate] | 98.4 | –
15 | CCC(=O)N1c2ccccc2[C@H](Nc2ccc(C(=O)N3CC4CC3CN4C(=O)c3ccc(N[C@@H]4C[C@H](C)N(C(=O)CC)c5ccccc54)cc3)cc2)C[C@@H]1C [Compound 1k, 1,1′-{(2S,2'S,4R,4′R)-{[(2,5-Diazabicyclo[2.2.1]heptane-2,5-dicarbonyl)bis(4,1-phenylene)]bis(azanediyl)}bis[2-methyl-3,4-dihydroquinoline-4,1(2H)-diyl]}bis(propan-1-one)] | 98.6 | –
